# Measured values from patent US20100129430A1, “LIPOSOME DRUG CARRIERS WITH PH-SENSITIVITY” (priority 2008, published 2010).
# Tests used:
# pKa of lipid headgroups = assay type: physicochemical; conditions: lowest value that arranges all release-rate data points in a straight line
# Protocol: The Zeta potential of liposomes containing different fractions of the titratable domain-forming lipid DSPA was measured in phosphate buffer at different pH values (7.4, 5.5, and 4.0) using a Zetasizer ZS90 (Malvern instruments, Worcestershire, UK). Measurements were performed in 10 mM PBS with no salt. For these measurements, liposomes (1 mM total lipid) were prepared without grafted PEG-chains on their surface to allow for closer approach of the plane of shear to the physical surface of lipid membranes.
# For all lipid fractions, the rate of content release attributed to discontinuities at the interfacial boundaries is linearly proportional to the square root of protonated DSPA lipids and therefore proportional to the total perimeter of the discontinuities' interface (open symbols).
# This deviation of the pKa value can be attributed to several factors. First, the proposed model of small, circular domains is certainly an oversimplification. Second, because the apparent pKa of PA should depend on the surface charge density, the values of apparent pKa should be composition-dependent.
# [1] = reported value; cited from earlier work
substance,measurement,setting,value
phosphatidic acid,pKa used to calculate the fraction of protonated DSPA lipids,pKa of lipid headgroups,4.5
same,pKa,[1],4.0
